According to patent publication US20230301300A1, “HERBICIDAL COMPOSITIONS” (SYNGENTA CROP PROTECTION AG, priority 2020, published 2023):

Tests used:
Format in all cases: in vivo
[1] = system: Amaranthus retoflexus (AMARE); test: B1 Post-Emergence Efficacy - Test 1; details: 1000 g/ha, after 13 days, five point scale
Protocol: (§1) Seeds of a variety of test species are sown in standard soil in pots:— Solanum nigrum (SOLNI), Amaranthus retoflexus (AMARE), Setaria faberi (SETFA), Alopecurus myosuroides (ALOMY), Echinochloa crus-galli (ECHCG), Ipomoea hederacea (IPOHE), Lolium perenne (LOLPE). After 8 days cultivation (post-emergence) under controlled conditions in a glasshouse (at 24/16° C., day/night; 14 hours light; 65% humidity), the plants are sprayed with an aqueous spray solution derived from the formulation of the technical active ingredient in acetone/water (50:50) solution containing 0.5% Tween 20 (polyoxyethylene sorbitan monolaurate, CAS RN 9005-64-5). Compounds are applied at 1000 g/ha. The test plants are then grown in a glasshouse under controlled conditions in a glasshouse (at 24/16° C., day/night; 14 hours light; 65% humidity) and watered twice daily. After 13 days, the test is evaluated for the percentage damage caused to the plant. The biological activities are assessed on a five point scale (5=80-100%; 4=60-79%; 3=40-59%; 2=20-39%; 1=0-19%). A blank value in the table is indicative that the compound was not tested on that species.

[2] = system: Echinochloa crus-galli (ECHCG); test: B1 Post-Emergence Efficacy - Test 1; details: 1000 g/ha, after 13 days, five point scale
Protocol: as §1

[3] = system: Solanum nigrum (SOLNI); test: B1 Post-Emergence Efficacy - Test 1; details: 1000 g/ha, after 13 days, five point scale
Protocol: as §1

[4] = system: Setaria faberi (SETFA); test: B1 Post-Emergence Efficacy - Test 1; details: 1000 g/ha, after 13 days, five point scale
Protocol: as §1

[5] = system: Lolium perenne (LOLPE); test: B1 Post-Emergence Efficacy - Test 1; details: 1000 g/ha, after 13 days, five point scale
Protocol: as §1

[6] = system: Ipomoea hederacea (IPOHE); test: B1 Post-Emergence Efficacy - Test 1; details: 1000 g/ha, after 13 days, five point scale
Protocol: as §1

[7] = system: Abutilon theophrasti (ABUTH); test: B2 Post-Emergence Efficacy - Test 2; details: 15 days after application, 0-100 scale
Protocol: (§2) Seeds of a variety of test species (see Table B1) were sown in standard soil in pots. After cultivation for 12 days (post-emergence) under controlled conditions in a glasshouse (at 24/18° C. or 20/16° C., at day/night; 16 hours light; 65% humidity), the plants were sprayed with an aqueous spray solution derived from the formulation of the technical active ingredient dissolved in IF50 (see Table B2 for composition) and adjuvant (Genapol X080) was added to the spray solution at a rate of 0.2% v/v.
(§3) After application, the test plants were grown in a glasshouse under controlled conditions (as above) and watered twice daily. Herbicidal activity was evaluated 15 days after application on a 0-100 scale. The results, where 0=no damage to test plant and 100=total kill of test plant are shown below in Tables 8 to 11.

[8] = system: Glycine max (GLXMA); test: B2 Post-Emergence Efficacy - Test 2; details: 15 days after application; for Herbicidal activity GLXMA: 0-100 scale; for Herbicidal activity on a 0-100 scale, GLXMA: 0=no damage, 100=total kill
Protocol: as §2, §3

[9] = system: Echinochloa crus galli (ECHCG); test: B2 Post-Emergence Efficacy - Test 2; details: 15 days after application, 0=no damage, 100=total kill
Protocol: as §2, §3

[10] = system: Setaria faberi (SETFA); test: B2 Post-Emergence Efficacy - Test 2; details: 15 days after application, 0=no damage, 100=total kill
Protocol: as §2, §3

[11] = system: Hordeum vulgare (HORVW); test: B2 Post-Emergence Efficacy - Test 2; details: 15 days after application, 0-100 scale
Protocol: as §2, §3

[12] = system: Amaranthus retroflexus (AMARE); test: B2 Post-Emergence Efficacy - Test 2; details: 15 days after application, 0-100 scale
Protocol: as §2, §3

[13] = system: Brachiaria plantaginea (BRAPL); test: B2 Post-Emergence Efficacy - Test 2; details: 15 days after application, 0=no damage, 100=total kill
Protocol: as §2, §3

[14] = system: Sinapis arvensis (SINAR); test: B2 Post-Emergence Efficacy - Test 2; details: 15 days after application, 0-100 scale
Protocol: as §2, §3

[15] = system: Avena fatua (AVEFA); test: B2 Post-Emergence Efficacy - Test 2; details: 15 days after application, 0-100 scale
Protocol: as §2, §3

[16] = system: Orysa sativa (ORYSA); test: B2 Post-Emergence Efficacy - Test 2; details: 15 days after application; for Herbicidal activity ORYSA: 0-100 scale; for Herbicidal activity on a 0-100 scale, ORYSA: 0=no damage, 100=total kill
Protocol: as §2, §3

[17] = system: Ipomoea hederacea (IPOHE); test: B2 Post-Emergence Efficacy - Test 2; details: 15 days after application, 0-100 scale
Protocol: as §2, §3

Structure (SMILES): Cc1nn(C)c(=O)c(-c2c(F)ccc(Cl)c2CCc2ccccc2C(F)(F)F)c1O [Compound 1.066, 4-[3-chloro-6-fluoro-2-[2-[2-(trifluoromethyl)phenyl]ethyl]phenyl]-5-hydroxy-2,6-dimethyl-pyridazin-3-one]
- percentage damage caused to the plant, AMARE [1]: 5 (5=80-100%)
- percentage damage caused to the plant, ECHCG [2]: 5 (5=80-100%)
- percentage damage caused to the plant, SOLNI [3]: 5 (5=80-100%)
- percentage damage caused to the plant, SETFA [4]: 5 (5=80-100%)
- percentage damage caused to the plant, LOLPE [5]: 4 (4=60-79%)
- percentage damage caused to the plant, IPOHE [6]: 5 (5=80-100%)
- Herbicidal activity ABUTH ([7]; 15 g/Ha): 20
- Herbicidal activity ABUTH ([7]; 30 g/Ha): 50
- Herbicidal activity ABUTH ([7]; 60 g/Ha): 50
- Herbicidal activity ABUTH ([7]; 125 g/Ha): 90
- Herbicidal activity ABUTH ([7]; 250 g/Ha): 90
- Herbicidal activity ABUTH ([7]; 500 g/Ha): 100
- Herbicidal activity GLXMA ([8]; 15 g/Ha): 20
- Herbicidal activity on a 0-100 scale, GLXMA ([8]; 15 g/Ha): 20
- Herbicidal activity GLXMA ([8]; 30 g/Ha): 40
- Herbicidal activity on a 0-100 scale, GLXMA ([8]; 30 g/Ha): 40
- Herbicidal activity GLXMA ([8]; 60 g/Ha): 70
- Herbicidal activity on a 0-100 scale, GLXMA ([8]; 60 g/Ha): 70
- Herbicidal activity GLXMA ([8]; 125 g/Ha): 70
- Herbicidal activity on a 0-100 scale, GLXMA ([8]; 125 g/Ha): 70
- Herbicidal activity GLXMA ([8]; 250 g/Ha): 90
- Herbicidal activity on a 0-100 scale, GLXMA ([8]; 250 g/Ha): 90
- Herbicidal activity GLXMA ([8]; 500 g/Ha): 90
- Herbicidal activity on a 0-100 scale, GLXMA ([8]; 500 g/Ha): 90
- Herbicidal activity on a 0-100 scale, ECHCG ([9]; 15 g/Ha): 20
- Herbicidal activity on a 0-100 scale, ECHCG ([9]; 30 g/Ha): 80
- Herbicidal activity on a 0-100 scale, ECHCG ([9]; 60 g/Ha): 90
- Herbicidal activity on a 0-100 scale, ECHCG ([9]; 125 g/Ha): 90
- Herbicidal activity on a 0-100 scale, ECHCG ([9]; 250 g/Ha): 90
- Herbicidal activity on a 0-100 scale, ECHCG ([9]; 500 g/Ha): 90
- Herbicidal activity on a 0-100 scale, SETFA ([10]; 15 g/Ha): 0
- Herbicidal activity on a 0-100 scale, SETFA ([10]; 30 g/Ha): 70
- Herbicidal activity on a 0-100 scale, SETFA ([10]; 60 g/Ha): 70
- Herbicidal activity on a 0-100 scale, SETFA ([10]; 125 g/Ha): 80
- Herbicidal activity on a 0-100 scale, SETFA ([10]; 250 g/Ha): 90
- Herbicidal activity on a 0-100 scale, SETFA ([10]; 500 g/Ha): 90
- Herbicidal activity HORVW ([11]; 15 g/Ha): 0
- Herbicidal activity HORVW ([11]; 30 g/Ha): 10
- Herbicidal activity HORVW ([11]; 60 g/Ha): 20
- Herbicidal activity HORVW ([11]; 125 g/Ha): 70
- Herbicidal activity HORVW ([11]; 250 g/Ha): 80
- Herbicidal activity HORVW ([11]; 500 g/Ha): 90
- Herbicidal activity AMARE ([12]; 15 g/Ha): 90
- Herbicidal activity AMARE ([12]; 30 g/Ha): 90
- Herbicidal activity AMARE ([12]; 60 g/Ha): 90
- Herbicidal activity AMARE ([12]; 125 g/Ha): 100
- Herbicidal activity AMARE ([12]; 250 g/Ha): 100
- Herbicidal activity AMARE ([12]; 500 g/Ha): 100
- Herbicidal activity on a 0-100 scale, BRAPL ([13]; 15 g/Ha): 0
- Herbicidal activity on a 0-100 scale, BRAPL ([13]; 30 g/Ha): 60
- Herbicidal activity on a 0-100 scale, BRAPL ([13]; 125 g/Ha): 80
- Herbicidal activity on a 0-100 scale, BRAPL ([13]; 250 g/Ha): 70
- Herbicidal activity on a 0-100 scale, BRAPL ([13]; 500 g/Ha): 100
- Herbicidal activity SINAR ([14]; 15 g/Ha): 60
- Herbicidal activity SINAR ([14]; 30 g/Ha): 60
- Herbicidal activity SINAR ([14]; 60 g/Ha): 80
- Herbicidal activity SINAR ([14]; 125 g/Ha): 90
- Herbicidal activity SINAR ([14]; 250 g/Ha): 90
- Herbicidal activity SINAR ([14]; 500 g/Ha): 90
- Herbicidal activity AVEFA ([15]; 15 g/Ha): 0
- Herbicidal activity AVEFA ([15]; 30 g/Ha): 20
- Herbicidal activity AVEFA ([15]; 60 g/Ha): 40
- Herbicidal activity AVEFA ([15]; 125 g/Ha): 90
- Herbicidal activity AVEFA ([15]; 250 g/Ha): 90
- Herbicidal activity AVEFA ([15]; 500 g/Ha): 90
- Herbicidal activity ORYSA ([16]; 15 g/Ha): 0
- Herbicidal activity on a 0-100 scale, ORYSA ([16]; 15 g/Ha): 0
- Herbicidal activity ORYSA ([16]; 30 g/Ha): 0
- Herbicidal activity on a 0-100 scale, ORYSA ([16]; 30 g/Ha): 0
- Herbicidal activity ORYSA ([16]; 60 g/Ha): 0
- Herbicidal activity on a 0-100 scale, ORYSA ([16]; 60 g/Ha): 0
- Herbicidal activity ORYSA ([16]; 125 g/Ha): 10
- Herbicidal activity on a 0-100 scale, ORYSA ([16]; 125 g/Ha): 10
- Herbicidal activity ORYSA ([16]; 250 g/Ha): 20
- Herbicidal activity on a 0-100 scale, ORYSA ([16]; 250 g/Ha): 20
- Herbicidal activity ORYSA ([16]; 500 g/Ha): 40
- Herbicidal activity on a 0-100 scale, ORYSA ([16]; 500 g/Ha): 40
- Herbicidal activity IPOHE ([17]; 15 g/Ha): 70
- Herbicidal activity IPOHE ([17]; 30 g/Ha): 90
- Herbicidal activity IPOHE ([17]; 60 g/Ha): 90
- Herbicidal activity IPOHE ([17]; 125 g/Ha): 100
- Herbicidal activity IPOHE ([17]; 250 g/Ha): 100
- Herbicidal activity IPOHE ([17]; 500 g/Ha): 100
